From ChEMBL document CHEMBL1201862, “PubChem BioAssay data set” (2004)
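Exposure lasted 48 hours, with cells grown in 96-well plates and compounds tested at five concentrations. GI50: concentration for 50% inhibition of growth.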 Active and inactive are the calls of the source. Cut-off read from the data, not from the text of the source: active = GI50 up to about 1.1 µM and inactive = higher.

Tests used:
Experiment in all cases: inhibition of tumour cell growth, NCI panel, 48 h
SN12C = tested on: SN12C
HL-60 = tested on: HL-60
RXF 393 = tested on: RXF 393
M14 = tested on: M14
OVCAR-4 = tested on: OVCAR-4
HOP-62 = tested on: HOP-62
786-0 = tested on: 786-0
SNB-75 = tested on: SNB-75
SK-MEL-28 = tested on: SK-MEL-28
SK-OV-3 = tested on: SK-OV-3
OVCAR-8 = tested on: OVCAR-8
U-251 = tested on: U-251
TK-10 = tested on: TK-10
IGROV-1 = tested on: IGROV-1
HCC 2998 = tested on: HCC 2998
NCI-H226 = tested on: NCI-H226

Measured: GI50

O=C(O)C1C2CC3CC2CC31 (centres undefined)
inactive: SN12C > 100 µM | HL-60 > 100 µM | RXF 393 > 100 µM | M14 > 100 µM | OVCAR-4 > 100 µM | HOP-62 > 100 µM | 786-0 > 100 µM | SNB-75 > 100 µM | SK-MEL-28 > 100 µM | SK-OV-3 > 100 µM | OVCAR-8 > 100 µM | U-251 > 100 µM | TK-10 > 100 µM | IGROV-1 > 100 µM

CCC12CC[C@H](C#N)N3CCc4c(n(c5ccccc45)C(=O)C1)C32 (some centres undefined)
inactive: SN12C 19.4 µM | RXF 393 13.3 µM | M14 16.4 µM | OVCAR-4 12.1 µM | HOP-62 22.9 µM | 786-0 16.9 µM | SNB-75 5.56 µM | SK-MEL-28 15.2 µM | SK-OV-3 35.3 µM | OVCAR-8 19.9 µM | HCC 2998 15.8 µM | U-251 16.3 µM | TK-10 16.4 µM | IGROV-1 24.8 µM

COc1cc2cnc3c4cc(OC(C)C)c(OC)cc4ccc3c2cc1OC
inactive: SN12C > 100 µM | M14 > 100 µM | OVCAR-4 > 100 µM | HOP-62 > 100 µM | 786-0 > 100 µM | SNB-75 > 100 µM | SK-MEL-28 > 100 µM | SK-OV-3 > 100 µM | OVCAR-8 > 100 µM | HCC 2998 > 100 µM | U-251 > 100 µM | TK-10 > 100 µM | IGROV-1 > 100 µM

C/C(CCn1[nH]c(=O)ccc1=O)=N\NC(=O)C(N)=O
inactive: SN12C > 100 µM | HL-60 > 100 µM | RXF 393 > 100 µM | M14 > 100 µM | OVCAR-4 > 100 µM | HOP-62 > 100 µM | 786-0 > 100 µM | SNB-75 > 100 µM | SK-MEL-28 > 100 µM | OVCAR-8 > 100 µM | NCI-H226 > 100 µM | HCC 2998 > 100 µM | U-251 > 100 µM | TK-10 > 100 µM | IGROV-1 > 100 µM

CCOC(=O)C[C@@]12CCCNC1(C)CCc1ccccc12 (some centres undefined)
inactive: SN12C > 100 µM | HL-60 > 100 µM | M14 > 100 µM | HOP-62 > 100 µM | 786-0 > 100 µM | SK-OV-3 > 100 µM | OVCAR-8 > 100 µM | NCI-H226 > 100 µM | U-251 > 100 µM | TK-10 > 100 µM | IGROV-1 > 100 µM

O=C(O)c1c([N+](=O)[O-])cc(C(F)(F)F)cc1[N+](=O)[O-]
inactive: SN12C > 100 µM | HL-60 > 100 µM | RXF 393 > 100 µM | M14 > 100 µM | OVCAR-4 > 100 µM | HOP-62 > 100 µM | 786-0 > 100 µM | SK-MEL-28 > 100 µM | OVCAR-8 > 100 µM | NCI-H226 > 100 µM | U-251 > 100 µM | TK-10 > 100 µM | IGROV-1 > 100 µM

Cc1c(Cl)cccc1N1C(=O)C(Cl)=C(Cl)C1=O
inactive: SN12C > 100 µM | RXF 393 44.4 µM | M14 > 100 µM | OVCAR-4 > 100 µM | HOP-62 > 100 µM | 786-0 98.6 µM | SNB-75 > 100 µM | SK-MEL-28 > 100 µM | SK-OV-3 > 100 µM | OVCAR-8 > 100 µM | NCI-H226 > 100 µM | HCC 2998 > 100 µM | U-251 > 100 µM | TK-10 > 100 µM | IGROV-1 > 100 µM

CC(=O)N1[C@H](C(=O)O)CS[C@H]1c1ccc(F)cc1
inactive: SN12C > 100 µM | HL-60 > 100 µM | RXF 393 > 100 µM | M14 > 100 µM | OVCAR-4 > 100 µM | HOP-62 > 100 µM | 786-0 > 100 µM | SNB-75 > 100 µM | SK-MEL-28 > 100 µM | OVCAR-8 > 100 µM | NCI-H226 > 100 µM | HCC 2998 > 100 µM | TK-10 > 100 µM | IGROV-1 > 100 µM

CC(C)(O)[C@@H]1CC[C@@]2(C)CCCC(O)C2(O)C1 (some centres undefined)
inactive: SN12C > 100 µM | HL-60 > 100 µM | M14 > 100 µM | OVCAR-4 > 100 µM | HOP-62 > 100 µM | 786-0 > 100 µM | SNB-75 > 100 µM | SK-MEL-28 > 100 µM | SK-OV-3 > 100 µM | OVCAR-8 > 100 µM | NCI-H226 > 100 µM | HCC 2998 > 100 µM | U-251 > 100 µM | TK-10 > 100 µM | IGROV-1 > 100 µM

CCCCCCCCOCC(O)COC (centres undefined)
inactive: SN12C > 100 µM | HL-60 > 100 µM | M14 > 100 µM | OVCAR-4 > 100 µM | HOP-62 > 100 µM | 786-0 > 100 µM | SK-MEL-28 > 100 µM | SK-OV-3 > 100 µM | OVCAR-8 > 100 µM | NCI-H226 > 100 µM | HCC 2998 > 100 µM | U-251 > 100 µM | TK-10 > 100 µM | IGROV-1 > 100 µM

COc1ccc2c(c1)C(=O)C1CC(=O)CCC21 (centres undefined)
inactive: SN12C > 100 µM | HL-60 > 100 µM | M14 > 100 µM | OVCAR-4 > 100 µM | HOP-62 > 100 µM | 786-0 > 100 µM | SNB-75 > 100 µM | SK-MEL-28 > 100 µM | SK-OV-3 > 100 µM | OVCAR-8 > 100 µM | NCI-H226 > 100 µM | HCC 2998 > 100 µM | U-251 > 100 µM | TK-10 > 100 µM | IGROV-1 > 100 µM

O=C(/C(=C/c1ccc(Cl)cc1)c1ccccc1)c1ccccc1
inactive: SN12C 16.7 µM | HL-60 19.9 µM | M14 16.3 µM | OVCAR-4 18 µM | HOP-62 25.9 µM | 786-0 22.3 µM | SNB-75 22.8 µM | SK-MEL-28 16.9 µM | SK-OV-3 23.9 µM | OVCAR-8 20.3 µM | NCI-H226 17.1 µM | HCC 2998 16.9 µM | U-251 17 µM | TK-10 25.4 µM | IGROV-1 18.7 µM

O=C1O[C@H](c2ccccc2)[C@@H]2CC3(CCN12)OCCO3
inactive: SN12C > 100 µM | HL-60 > 100 µM | RXF 393 > 100 µM | M14 > 100 µM | OVCAR-4 > 100 µM | HOP-62 > 100 µM | 786-0 > 100 µM | SK-MEL-28 > 100 µM | OVCAR-8 > 100 µM | NCI-H226 > 100 µM | U-251 > 100 µM | TK-10 > 100 µM | IGROV-1 > 100 µM

COc1cc(C=O)c(-c2cc3c(cc2C=O)OCO3)c(OC)c1OC
inactive: SN12C 85.9 µM | HL-60 94.8 µM | RXF 393 63.5 µM | HOP-62 108 µM | 786-0 84.9 µM | SK-MEL-28 144 µM | SK-OV-3 98.6 µM | OVCAR-8 117 µM | NCI-H226 93.1 µM | HCC 2998 210 µM | U-251 126 µM | TK-10 210 µM | IGROV-1 143 µM
